The values below come from paper PMC10112268, “Inhibition of Human Coronaviruses by Combinations of Host-Targeted and Direct-Acting Antivirals” (Antimicrobial Agents and Chemotherapy, 2023).

Assay type in all cases: cell-based
Test [1] has as its system SARS-CoV-2 isolate MAD6 (Wuhan-Hu-1 strain). As to the kind of experiment: Virus yield inhibition in infected Calu3 2B4 cells, plaque assay on Vero E6. The note with it: for IC50: Severe acute respiratory syndrome coronavirus 2, Calu-3 2B4, specificity experiment (Fig. 3), Calu3 2B4, 24 hpi, read-out: IC50, virus yield; for SARS-CoV-2 titers: at 100 μM, Fig. 3, no drug 3.±0.1 × 10^5.

In the next test the test system is HCoV-229E-GFP. As to the kind of experiment: microbe, parasite or virus in culture. The note with it: for inhibition of viral multiplication at nontoxic concentrations / HCoV-229E-GFP titers: Fig. 3; for HCoV-229E-GFP titers: at 100 μM, no drug 4 ± 0.9 × 10^6.
For a further test, the system named is HCoV-OC43. As to the kind of experiment: microbe, parasite or virus in culture. The note with it: for IC50: Betacoronavirus 1, OC43, Huh-7, read-out: IC50, virus yield, specificity experiment (Fig. 3), 48 hpi; for IC50 / inhibition of viral multiplication at nontoxic concentrations: Huh-7; for inhibition of viral multiplication at nontoxic concentrations / HCoV-OC43 titers: Fig. 3; for HCoV-OC43 titers: at 100 μM, no drug 1.8 ± 0.9 × 10^6.

For orientation: IC50 means the point on the concentration scale where inhibition reaches its midpoint. In the case of `O=C(O[C@@H]1Cc2c(O)cc(O)cc2O[C@@H]1c1ccc(O)c(O)c1)c1cc(O)c(O)c(O)c1` [ECG, epicatechin gallate], in test [1], the IC50 was determined as 50.1 µM and the SARS-CoV-2 titers is given as 6 ± 0.3 × 10^4 PFU/mL.
Turning to `CCCOC(=O)c1cc(O)c(O)c(O)c1` [PG, propyl gallate], the “inhibition of viral multiplication at nontoxic concentrations” value (“inhibition of viral multiplication” below) in the test on HCoV-229E-GFP (Huh-7) was “Neither G nor PG inhibited viral multiplication”. The HCoV-229E-GFP titers with HCoV-229E-GFP is 2.2 ± 0.3 × 10^6 PFU/mL. Also, in the test on HCoV-OC43, the concentration for half-maximal inhibition (IC50) is 22.5 µM, the “inhibition of viral multiplication” value is listed as “Neither G nor PG inhibited viral multiplication” and the HCoV-OC43 titers is reported as 1.2 ± 0.3 × 10^6 PFU/mL.
Regarding `CCCCCCCCOC(=O)c1cc(O)c(O)c(O)c1` [OG, octyl gallate], the IC50 in the test with HCoV-229E-GFP (Human coronavirus 229E, Huh-7, read-out: IC50, virus yield, specificity experiment (Fig. 3), Huh-7, 24 hpi) was 3.9 µM; with HCoV-OC43 it was 2.56 µM. The HCoV-229E-GFP titers in the test with HCoV-229E-GFP was 1.4 ± 0.5 × 10^3 PFU/mL. For the same molecule, the HCoV-OC43 titers in the test on HCoV-OC43 is reported as 5 ± 0.01 × 10^1 PFU/mL.
For `O=C(O)c1cc(O)c(O)c(O)c1` [G, gallic acid], in the test on HCoV-229E-GFP (Huh-7), the “inhibition of viral multiplication” value is reported as “Neither G nor PG inhibited viral multiplication”. Also, the HCoV-229E-GFP titers in the test on HCoV-229E-GFP was 3.1 ± 0.2 × 10^6 PFU/mL. In test [1], the IC50 is 40.5 µM and the SARS-CoV-2 titers is 7.5 ± 0.2 × 10^4 PFU/mL. Further, in the test on HCoV-OC43, the “inhibition of viral multiplication” value was “Neither G nor PG inhibited viral multiplication” and the HCoV-OC43 titers is 1.2 ± 0.2 × 10^6 PFU/mL.
